Test results: patent US12599599B2, “Anti-inflammatory, anti-cancer, and anti-angiogenic compounds, pharmaceutical compositions, and methods of making and using thereof” (MEDICON PHARMACEUTICALS, INC., priority 2017, dated 2026)

What was measured:
[1] = test system: A549 lung cancer; experiment: 24 hr growth inhibition of cell line; format: cell-based; conditions: Homo sapiens
Method: (§1) The therapeutic efficacy of compounds 2, 5, and 6 was assessed in human and murine cell lines of varied tissue origin, and their 24 hr 50% inhibitory concentration was determined by following standard methodologies. Typical results are shown in the Table 5, indicating a broad anticancer effect.

[2] = test system: AGS gastric cancer; experiment: 24 hr growth inhibition of cell line; format: cell-based; conditions: Homo sapiens
Method: as §1

[3] = test system: HCT116 colon cancer; experiment: 24 hr growth inhibition of cell line; format: cell-based; conditions: Homo sapiens, HCT-116, 24 h
Method: as §1

[4] = test system: RAW264 murine macrophage; experiment: 24 hr growth inhibition of cell line; format: cell-based; conditions: Mus musculus, RAW264.7, 24 h
Method: as §1

[5] = test system: HEY-T30 xenografts; experiment: Synergy with cyclophosphamide, Taxol resistant subcutaneous xenografts; format: in vivo, nude mice; conditions: day 21; compound 5 10 mg/kg/day six days a week ip; cyclophosphamide 10 mg/kg six days a week orally; or both
[6] = test system: MIA PaCa2 human pancreatic cancer cells; experiment: In vitro synergy with tamoxifen; format: cell-based; conditions: tamoxifen prior to or concurrently with compound 5
Excerpt: Additionally, synergy has been documented between compounds 5 and 6 individually and several chemotherapeutic and other agents, including but not limited to various camptothecins (e.g., camptothecin 11), resveratrol, gemcitabine, docetaxel, curcumin, progesterone, and methotrexate. Such synergy concerned the ability of these combinations to markedly suppress the growth of various human cancer cell lines originating in the pancreas, lung and other tissues. Furthermore, extremely efficacious was the combination of compounds 5, 6 and tamoxifen in completely suppressing the growth of K-ras mutant human pancreatic cancer cell lines.

[7] = test system: JNK; experiment: Activation by phosphorylation in SKOV-3 cells; format: cell-based, human
Method: (§2) FIGS. 12A-12C and FIGS. 13A-13C illustrate key findings related to the mechanism of action of compound 5 against ovarian cancer. The studies shown here were performed in SKOV-3 human ovarian cancer cells. FIG. 12A: Left: Compound 5 increases the percentage of cells with acridine orange staining determined by flow cytometry (4% 4→38% after treatment with compound 5) and indicating the induction of autophagy. Right: Electron micrographs show morphological features of cells undergoing autophagy. Yellow arrowheads: vacuoles; white arrowheads: autophagosomes. […] N: nucleus; ER: endoplasmic reticulum with visible ribosomes. The left micrograph shown normal ER (circled) in a vehicle-treated cell. […] The latter finding is diagnostic of ER stress. Magnification: 6,800×. FIG. 12C: Compound 5 suppresses STAT3, mTOR and JNK activation by phosphorylation, as well as the levels of COT.

[8] = test system: STAT3; experiment: Activation by phosphorylation in SKOV-3 cells; format: cell-based, human
Method: as §2

[9] = test system: mTOR; experiment: Activation by phosphorylation in SKOV-3 cells; format: cell-based, human
Method: as §2

[10] = test system: COT; experiment: Protein levels in SKOV-3 cells; format: cell-based, human
Method: as §2

[11] = test system: 5′-cap dependent translation initiation; experiment: Renilla-Firefly luciferase dual translation assay in SKOV-3 cells; format: cell-based, human
Excerpt: (§3) FIG. 13A: Compound 5 induces the phosphorylation of eIF2α, confirming integrated stress response. p-eIF2αinduces ATF4 that suppresses 5′-cap dependent translation initiation, shown below. […] The levels of reporter proteins used in the translation assay (Pierce™ Renilla-Firefly Luciferase Dual Assay Kit; Thermo Scientific, Grand Island, NY) were normalized to the levels of intracellular FLUC-RLUC transcripts and are shown as percent of untreated control cells. RLU=Relative light units. 5′-cap dependent translation initiation was much less and occurred later. Values: Mean±SEM; *, p<0.05 and **, p<0.01 vs. control. […] Loading controls: β-actin and GADPH.

[12] = test system: GCN2; experiment: Activation by phosphorylation in SKOV-3 cells; format: cell-based, human; conditions: 1.5×IC50
Excerpt: as §3

[13] = test system: PERK; experiment: Activation by phosphorylation in SKOV-3 cells; format: cell-based, human; conditions: 1.5×IC50
Excerpt: as §3

[14] = test system: Ras palmitoylation in A2780 and A2780cis ovarian cancer cells; experiment: Ras palmitoylation (resin capture, immunoblot); format: cell-based, human
Method: FIGS. 18A-18B illustrate the effect of compounds 5 and 6 on K-Ras. FIG. 18A: Compound 6 suppressed of K-Ras activation. Cells with mutant K-Ras were treated with compound 6 1.5×IC50 for the respective time periods. K-Ras activity was determined by Ras pull-down (Thermo Scientific; following vendor instructions). K-Ras activation is suppressed 37% at 1 hr and 88% at 2 hrs compared to respective controls. FIG. 18B: Compound 5 suppressed the palmitoylation of Ras in A2780 and A2780cis (resistant to cisplatin) ovarian cancer cells. Palmitoylation is detected by removing S-palmitate groups from proteins, creating new free thiols (where the palmitic acid group used to be) and capturing the previously S-palmitoylated proteins on a resin, using a commercial kit (Badrilla, Leeds, UK). Ras was detected in the eluate by immunoblot.
This effect may be particularly useful in types of cancer characterized by K-Ras mutation such as, for example, pancreatic, lung and ovarian cancer. FIG. 18A illustrates the inhibition of K-Ras activation by compound 6. […] This property of compound 5 is not shared for example by compound 6 or phosphosulindac.

[15] = Ocular pharmacokinetics and biodistribution after eye drops; format: in vivo, New Zealand rabbits; parameters: unit not given here; conditions: rabbit, 20% eye drops
Method: The pharmacokinetics and biodistribution of compounds 1, 2, and 5 in the eye of rabbits were determined. Each of these compounds was dissolved in phosphate buffered saline (PBS) and used as eye drops. The eye drops were sterilized before application to rabbits by filtration through a 0.2 μm membrane. […] The eyes were harvested and eye tissues and the lacrimal glands were dissected, homogenized and the test compounds were extracted by acetonitrile and analyzed by HPLC, as described under Compound Synthesis described herein. Compounds 1 and 2 were detected at 328 nm, and compound 5 at 260 nm. […] All three compounds can unexpectedly, readily, and rapidly reach the posterior chamber of the eye.

IC50 [1]: 19 µM | IC50 [2]: 14 µM | IC50 [3]: 10 µM | Drug level in Vitreous [15]: 0.0 | Drug level in Ciliary body ([15]; 40 min): 0.0 | Drug level in Conjunctiva ([15]; 40 min): 33.2 | Drug level in Cornea ([15]; 40 min): 75.7 | Drug level in Iris ([15]; 40 min): 0.6 | Drug level in Lens ([15]; 40 min): 0.0 | Drug level in Retina ([15]; 40 min): 1.8 | Drug level in Sclera ([15]; 40 min): 1.3 | Drug level in Ciliary body ([15]; 60 min): 4.2 | Drug level in Conjunctiva ([15]; 60 min): 35.1 | Drug level in Cornea ([15]; 60 min): 96.7 | Drug level in Iris ([15]; 60 min): 1.9 | Drug level in Lens ([15]; 60 min): 0.0 | Drug level in Retina ([15]; 60 min): 3.4 | Drug level in Sclera ([15]; 60 min): 0.6 | Drug level in Vitreous ([15]; 60 min): 0.0
SMILES: CCN(CC)CCCCNC(=O)c1ccccc1SC/C=C(\C)CC/C=C(\C)CCC=C(C)C [Compound 5]
IC50 [4]: 5 µM | inhibition of tumor growth compared to control [5]: 26% | synergy with tamoxifen on growth of MIA PaCa2 cells [6]: synergizes | JNK activation by phosphorylation [7]: suppresses | STAT3 activation by phosphorylation [8]: suppresses | mTOR activation by phosphorylation [9]: suppresses | levels of COT [10]: suppresses | 5′-cap dependent translation initiation [11]: suppresses predominantly | GCN2 activation by phosphorylation [12]: activated by phosphorylation | PERK activation by phosphorylation [13]: activated by phosphorylation | suppression of palmitoylation of Ras [14]: suppressed
